Legend:
[1] = target: T1, Tyrosyl-DNA phosphodiesterase 1 (Homo sapiens, UniProt Q9NUW8); experiment: Inhibition of human tyrosyl-DNA phosphodiesterase 1 after 30 mins by alpha high throughput screening assay in presence of 0.05% Tween-20
[2] = target: T1, Tyrosyl-DNA phosphodiesterase 1; experiment: Inhibition of human tyrosyl-DNA phosphodiesterase 1 after 30 mins by alpha high throughput screening assay in presence of 0.01% Tween-20
[3] = target: T1, Tyrosyl-DNA phosphodiesterase 1; experiment: Inhibition of human tyrosyl-DNA phosphodiesterase 1 after 30 mins by alpha high throughput screening assay

T1 sequence (Q9NUW8 whole entry): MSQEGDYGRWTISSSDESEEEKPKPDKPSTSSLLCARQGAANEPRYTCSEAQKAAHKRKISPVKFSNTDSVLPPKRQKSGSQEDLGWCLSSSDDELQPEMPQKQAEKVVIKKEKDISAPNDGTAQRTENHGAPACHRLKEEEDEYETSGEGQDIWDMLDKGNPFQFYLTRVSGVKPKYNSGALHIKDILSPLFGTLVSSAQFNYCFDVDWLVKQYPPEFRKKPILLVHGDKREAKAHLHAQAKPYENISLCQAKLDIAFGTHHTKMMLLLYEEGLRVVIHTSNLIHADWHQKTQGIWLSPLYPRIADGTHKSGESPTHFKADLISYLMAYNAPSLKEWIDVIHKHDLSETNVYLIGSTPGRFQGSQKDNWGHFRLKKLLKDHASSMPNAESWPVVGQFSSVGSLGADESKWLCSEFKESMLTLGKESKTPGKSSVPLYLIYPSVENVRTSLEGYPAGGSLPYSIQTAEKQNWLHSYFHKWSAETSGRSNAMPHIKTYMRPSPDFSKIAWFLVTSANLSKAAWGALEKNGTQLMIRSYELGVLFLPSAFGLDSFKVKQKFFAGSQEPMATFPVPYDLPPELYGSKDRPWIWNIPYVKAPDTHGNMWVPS

Row | IC50 [1] | IC50 [2] | SMILES | IC50 [3]
1 | 89.1 µM | 44.7 µM | COC(=O)c1ccc(COc2ccc(C3Nc4ccccc4C(=O)N3C3CC3)cc2OC)cc1 (stereo not drawn) | 
2 | 70.8 µM | 79.4 µM | COc1cc(/C=C/C(=O)OC(C(=O)N2CCCCC2)c2ccccc2)ccc1O (stereo not drawn) | 
3 | 44.7 µM | 31.6 µM | O=C(/C=C/c1ccc(C(F)(F)F)cc1)OC(C(=O)NC1CC1)c1ccccc1 (stereo not drawn) | 
4 |  |  | O=c1c2ccccc2c2ccccc2c(=O)n1-c1cccc2c1ccc1c3ccccc3ccc21 | 5 µM
5 | 50.1 µM | 35.5 µM | O=C(OCc1cn2ccccc2n1)c1c2c(nc3ccccc13)CCC2 | 
6 | 11.2 µM | 7.94 µM | CCOC(=O)CN(C(=O)COC(=O)Cc1c[nH]c2ccccc12)c1ccc(F)cc1 | 
7 | 79.4 µM | 100 µM | Cc1cc(C)nc(N/C=C(\C#N)C(=O)c2cccc(CSc3ccccc3)c2)n1 | 
8 | 22.4 µM | 14.1 µM | CCOc1cccc2cc(C(=O)OCC(=O)c3c[nH]c4ccccc34)c(=O)oc12 | 
9 |  |  | Fc1cccc(Cl)c1/C=N/N=C1c2ccccc2-c2ccccc21 | 14 µM
10 | 50.1 µM | 44.7 µM | CCOC(=O)c1sc(N2C(=O)c3oc4ccc(F)cc4c(=O)c3C2c2ccc(C)cc2)nc1C (stereo not drawn) | 

Source: ChEMBL document CHEMBL1157706, “Inhibitors of human tyrosyl-DNA phospodiesterase (hTdp1) developed by virtual screening using ligand-based pharmacophores” (Bioorg Med Chem, 2010)
